Values of other authors in PubChem BioAssay AID1259409 (Chemical Carcinogenesis Research Information System (CCRIS), 2018).

System: rodent chemically induced tumor inhibition, incidence and multiplicity
Assay: CCRIS tumor inhibitor studies
Details: Dose [Inhibitor]: 0, Route [Inhibitor]: ORAL, Species: RAT, Strain/Sex: F344/MALE

C=C[C@H](OC(C)=O)c1ccc(OC(C)=O)cc1
tumour outcome (control, treated, inhibition, significance) (Carcinogen: 4-NITROQUINOLINE-1-OXIDE, 56-57-5, 100 PPM IN DIET FOR 10 WK BEGINNING 1 WK PRIOR TO CARCINOGEN TREATMENT (STUDY DURATION: 32 WK), Target Tissue: Type of Lesion: TONGUE: PAPILLOMA OR CARCINOMA, Dose [Carcinogen]: 20 PPM IN DRINKING WATER FOR 8 WK, Promoter: NONE USED): 14/24 (58%), 0/20 (0%), 100%, p<0.001
tumour outcome (control, treated, inhibition, significance) (Carcinogen: 4-NITROQUINOLINE-1-OXIDE, 56-57-5, 100 PPM IN DIET FOR 22 WK BEGINNING 1 WK POST CARCINOGEN TREATMENT (STUDY DURATION: 32 WK), Target Tissue: Type of Lesion: TONGUE: PAPILLOMA OR CARCINOMA, Dose [Carcinogen]: 20 PPM IN DRINKING WATER FOR 8 WK, Promoter: NONE USED): 14/24 (58%), 0/20 (0%), 100%, p<0.001
tumour outcome (control, treated, inhibition, significance) (Carcinogen: 4-NITROQUINOLINE-1-OXIDE, 56-57-5, 500 PPM IN DIET FOR 10 WK BEGINNING 1 WK PRIOR TO CARCINOGEN TREATMENT (STUDY DURATION: 32 WK), Target Tissue: Type of Lesion: TONGUE: PAPILLOMA OR CARCINOMA, Dose [Carcinogen]: 20 PPM IN DRINKING WATER FOR 8 WK, Promoter: NONE USED): 14/24 (58%), 2/23 (9%), 84%, p<0.001
tumour outcome (control, treated, inhibition, significance) (Carcinogen: 4-NITROQUINOLINE-1-OXIDE, 56-57-5, 500 PPM IN DIET FOR 22 WK BEGINNING 1 WK POST CARCINOGEN TREATMENT (STUDY DURATION: 32 WK), Target Tissue: Type of Lesion: TONGUE: PAPILLOMA OR CARCINOMA, Dose [Carcinogen]: 20 PPM IN DRINKING WATER FOR 8 WK, Promoter: NONE USED): 14/24 (58%), 0/23 (0%), 100%, p<0.001
tumour outcome (control, treated, inhibition, significance) (Carcinogen: AZOXYMETHANE, 25843-45-2, 0.01% IN DIET FOR 4 WK BEGINNING 1 WK PRIOR TO CARCINOGEN TREATMENT (STUDY DURATION: 38 WK), Target Tissue: Type of Lesion: COLON: ADENOCARCINOMA, Dose [Carcinogen]: 15 MG/KG BW 1/WK FOR 3 WK, Promoter: NONE): 70%, 33%, 53%, p<0.03
tumour outcome (control, treated, inhibition, significance) (Carcinogen: AZOXYMETHANE, 25843-45-2, 0.01% IN DIET FOR 34 WK BEGINNING 1 WK POST LAST CARCINOGEN DOSE (STUDY DURATION: 38 WK), Target Tissue: Type of Lesion: COLON: ADENOCARCINOMA, Dose [Carcinogen]: 15 MG/KG BW 1/WK FOR 3 WK, Promoter: NONE): 70%, 38%, 46%, not significant
tumour outcome (control, treated, inhibition, significance) (Carcinogen: AZOXYMETHANE, 25843-45-2, 0.02% IN DIET FOR 4 WK BEGINNING 1 WK PRIOR TO CARCINOGEN TREATMENT (STUDY DURATION: 38 WK), Target Tissue: Type of Lesion: COLON: ADENOCARCINOMA, Dose [Carcinogen]: 15 MG/KG BW 1/WK FOR 3 WK, Promoter: NONE): 70%, 17%, 76%, p<0.001
tumour outcome (control, treated, inhibition, significance) (Carcinogen: AZOXYMETHANE, 25843-45-2, 0.02% IN DIET FOR 34 WK BEGINNING 1 WK POST LAST CARCINOGEN DOSE (STUDY DURATION: 38 WK), Target Tissue: Type of Lesion: COLON: ADENOCARCINOMA, Dose [Carcinogen]: 15 MG/KG BW 1/WK FOR 3 WK, Promoter: NONE): 70%, 6%, 91%, p<0.00003
tumour outcome (control, treated, inhibition, significance) (Carcinogen: AZOXYMETHANE, 25843-45-2, 100 PPM IN DIET FOR 4 WK BEGINNING 1 WK PRIOR TO CARCINOGEN TREATMENT (STUDY DURATION: 38 WK), Target Tissue: Type of Lesion: LARGE INTESTINE: TUMOR, Dose [Carcinogen]: 15 MG/KG BW 1/WK FOR 3 WK, Promoter: NONE USED): 12/17 (71%), 7/18 (39%), 45%, not significant
tumour outcome (control, treated, inhibition, significance) (Carcinogen: AZOXYMETHANE, 25843-45-2, 100 PPM IN DIET FOR 4 WK BEGINNING 1 WK PRIOR TO CARCINOGEN TREATMENT (STUDY DURATION: 38 WK), Target Tissue: Type of Lesion: SMALL INTESTINE: TUMOR, Dose [Carcinogen]: 15 MG/KG BW 1/WK FOR 3 WK, Promoter: NONE USED): 5/17 (29%), 3/18 (17%), 41%, not significant
tumour outcome (control, treated, inhibition, significance) (Carcinogen: AZOXYMETHANE, 25843-45-2, 100 PPM IN DIET FOR 34 WK BEGINNING 1 WK POST CARCINOGEN TREATMENT (STUDY DURATION: 38 WK), Target Tissue: Type of Lesion: LARGE INTESTINE: TUMOR, Dose [Carcinogen]: 15 MG/KG BW 1/WK FOR 3 WK, Promoter: NONE USED): 12/17 (71%), 9/18 (50%), 30%, not significant
tumour outcome (control, treated, inhibition, significance) (Carcinogen: AZOXYMETHANE, 25843-45-2, 100 PPM IN DIET FOR 34 WK BEGINNING 1 WK POST CARCINOGEN TREATMENT (STUDY DURATION: 38 WK), Target Tissue: Type of Lesion: SMALL INTESTINE: TUMOR, Dose [Carcinogen]: 15 MG/KG BW 1/WK FOR 3 WK, Promoter: NONE USED): 5/17 (29%), 4/18 (22%), 24%, not significant
tumour outcome (control, treated, inhibition, significance) (Carcinogen: AZOXYMETHANE, 25843-45-2, 500 PPM IN DIET FOR 4 WK BEGINNING 1 WK PRIOR TO CARCINOGEN TREATMENT (STUDY DURATION: 38 WK), Target Tissue: Type of Lesion: LARGE INTESTINE: TUMOR, Dose [Carcinogen]: 15 MG/KG BW 1/WK FOR 3 WK, Promoter: NONE USED): 12/17 (71%), 8/19 (42%), 41%, not significant
tumour outcome (control, treated, inhibition, significance) (Carcinogen: AZOXYMETHANE, 25843-45-2, 500 PPM IN DIET FOR 4 WK BEGINNING 1 WK PRIOR TO CARCINOGEN TREATMENT (STUDY DURATION: 38 WK), Target Tissue: Type of Lesion: SMALL INTESTINE: TUMOR, Dose [Carcinogen]: 15 MG/KG BW 1/WK FOR 3 WK, Promoter: NONE USED): 5/17 (29%), 5/19 (26%), 10%, not significant
tumour outcome (control, treated, inhibition, significance) (Carcinogen: AZOXYMETHANE, 25843-45-2, 500 PPM IN DIET FOR 34 WK BEGINNING 1 WK POST CARCINOGEN TREATMENT (STUDY DURATION: 38 WK), Target Tissue: Type of Lesion: LARGE INTESTINE: TUMOR, Dose [Carcinogen]: 15 MG/KG BW 1/WK FOR 3 WK, Promoter: NONE USED): 12/17 (71%), 4/20 (20%), 72%, p=0.002
tumour outcome (control, treated, inhibition, significance) (Carcinogen: AZOXYMETHANE, 25843-45-2, 500 PPM IN DIET FOR 34 WK BEGINNING 1 WK POST CARCINOGEN TREATMENT (STUDY DURATION: 38 WK), Target Tissue: Type of Lesion: SMALL INTESTINE: TUMOR, Dose [Carcinogen]: 15 MG/KG BW 1/WK FOR 3 WK, Promoter: NONE USED): 5/17 (29%), 2/20 (10%), 66%, not significant
